From patent US20100068747A1, “Generic Assay for Monitoring Endocytosis” (Evotec Technologies GmbH, priority 2005, published 2010)
Entries after “also recorded” stand apart in the source; their conditions may differ.

Columns and labels:
[1] = test system: U2OS/ETAR-GFP cells; experiment: Lectin labeling of fixed cells, U2OS/ETAR-GFP; format: cell-based, human; conditions: TRITC-lectin 10 nM and 20 nM
Protocol: (§1) Lectin labeling of fixed cells was conducted as follows: To detach confluent cells in order to prepare experiments for internalization studies, cells were always treated with EDTA solution instead of trypsin solution. For all seeding, washing, and labeling steps in 96-well plates a working volume of 100 μl per well was assessed. Cells were seeded out into a 96-well plate at different concentrations. U2OS/ETAR-GFP suspensions were adjusted to yield 2*10^4 cells/well, both of the CHO cell lines must be at 2.5*10^4 cells/well. Cells became confluent after 24 hours of incubation. In the following, they were washed with phosphate buffered saline (PBS) and fixed with 3% PFA for 20 minutes at RT. Then, cells were washed again with PBS and incubated in 10 nM and 20 nM solutions of each TRITC-lectin candidate in PBS, respectively. Again, cells were washed with PBS to remove excess lectin, and wells were refilled with PBS for analysis. For specificity controls, lectin solutions were incubated for 30 minutes prior to the application with an excess of the monosaccharide that represents the respective glyco-epitope.
(§2) The following microscopy and image analysis techniques were employed. When utilizing the epifluorescence microscope magnifications were adjusted according to the purpose of observation, e.g. single cell vs. cell collective. Concerning the filters U-MNU was used for Hoechst, U-MSWB for GFP, and U-N41007 for TRITC detection. Hoechst images were taken at 50 ms exposure time, GFP images at 100 to 200 ms and TRITC images needed 500 to 1000 ms. Overlay images were assembled with AnalySIS and tuned in color intensity to obtain the desired color contrast. Images taken to compare two experimental conditions, e.g. control vs. stimulus, featured identical exposure parameters. If possible, well areas were chosen that reflect similar states of confluence. Utilizing the Opera confocal fluorescence imager, the instrument was calibrated running standard methods for skew cropping (spatial camera alignments) and camera intensity normalization.

[2] = test system: CHO/ETAR cells; experiment: Lectin labeling of live cells, CHO/ETAR; format: cell-based; conditions: TRITC-lectin, 10 nM at maximum
Protocol: (§3) Lectin labeling of live cells was conducted as follows: Cells were seeded as described above. After 24 hours cells were washed once with PBS and incubated in the incubator for another 2 hours in the respective standard medium without serum supplement to deprive them of serum factor mediated stimuli. This step was termed starvation period. Subsequently, cells were washed gently with PBS and incubated with 37° C. tempered assay medium comprised of Hank's Balanced Salt Solution (HBSS) pH 7.4, containing 20 mM HEPES and 30 mM D-glucose. The plate was left at RT for 30 minutes to slowly level its temperature and, thus, avoid capturing of temperature drop induced membrane dynamics. This period was termed leveling period. Then, assay medium was withdrawn and wells refilled with TRITC-lectin solutions at RT to start cell labeling. Several lectin concentrations in the low nano-molar range were tested. Molar concentrations were calculated from the data provided by Vector Labs. The plate was placed on a rotating shaker at low revolutions for 10 minutes while incubating. The start of the lectin incubation is referred to as assay starting point with t=0 min. After the 10 min incubation period the cells were gently washed with PBS and wells refilled with assay buffer at RT. Instantly thereafter, fluorescence signals were monitored predominately using the epifluorescence microscope.
as §2

[3] = test system: CHO/ETAR cells; experiment: Lectin labeling of fixed cells, CHO/ETAR; format: cell-based; conditions: TRITC-lectin 10 nM and 20 nM
Protocol: as §1, §2

[4] = test system: CHO/PAR-2 cell membrane protein; experiment: Lectin blotting of PAR-2 membrane sample; format: binding; conditions: biotinylated lectin 5 μg/ml
Protocol: (§4) Membrane preparation was conducted as follows: Cells were cultured in five T175 flasks until confluency. Confluent cells were detached by applying 3 ml of EDTA solution onto the PBS washed cells. Following a 20-minute incubation at 37° C. and 5% CO2, cells were resuspended in 12 ml of starvation medium (standard medium without FCS), counted, and centrifuged in a Heraeus Megafuge 1.0R at 133 rcf for 4 minutes. All subsequent steps were carried out on ice and with ice cold solutions. After unification of all pellet fractions, hypotonic lysis buffer was added to the cells at a ratio of 1 ml per 5*10^7 cells. Additionally, protease inhibitor cocktail was added to 50 μl per 5*10^7 cells. Cells were homogenized with 30 strokes in a 5 ml potter on ice, centrifuged at 4° C. and 917 rcf for 10 minutes, and the supernatant was stored in an ultracentrifuge tube on ice. The pellet fraction was homogenized and centrifuged once again as described above. The supernatants of both procedures were unified and centrifuged at 4° C. and 100,000 rcf for 45 minutes in a Sorvall ultra-centrifuge. The supernatant of this centrifugation procedure was withdrawn and the pellet dissolved in 0.5 ml or 1.0 ml modified SDS PAGE loading buffer containing Tris-HCl, SDS, glycerol, but no β-mercapto-ethanol or dyes and stored in small aliquots of 50 μl at −20° C.
(§5) SDS-Page of membrane samples was conducted as follows: Discontinuous 12% polyacrylamide gels were prepared according to a standard protocol. Broad range marker and 25 μg membrane protein were mixed 1:1 with loading buffer and loaded five times onto a mini gel in alternating order. The gels were run at U=100 V for the first 20 minutes. Subsequently, voltage was increased to U=150 V. The run was aborted as soon as the pyronin G band reached the end of the gel. For coomassie staining, gels were put in coomassie staining solution on a shaker at low revolutions for 45 min. The staining solution was removed and the gel incubated with destaining solution for one to two hours, exchanging the solution several times until the desired contrast was obtained.
Blotting of membrane samples was conducted as follows: For blotting, 3 mm packs of Whatman papers were extensively soaked in one of the diverging blotting buffers, AB I, AB II, and CB, and a pile was assembled in a semi-dry Trans-Blot 3D system from Bio-Rad as depicted in the sketch of FIG. 2. Hybond nitrocellulose membrane was submerged in AB II prior to assembly. To smooth out any air bubbles from the pile, a Pasteur pipette was rolled several times over the top layer. The apparatus was closed and ran at U=25 V for 45 minutes. Then, the pile was disassembled, the membrane submerged in Ponceau S solution and gently swayed for 2 minutes. For destaining, ddH2O was substituted for the staining solution, and the membrane was briefly rinsed twice. After drying under ambient conditions, the marker bands were marked with a ballpoint-pen. The membrane was cut into slices each displaying one marker and one sample lane.
Probing of membrane samples was conducted as follows: For classical western blotting, membranes were blocked in PBS containing 5% low fat dried milk powder. They were placed on a rotating shaker at low revolutions for 1 hour. Subsequently, membranes were sealed in plastic bags with blocking solution additionally containing 1 μg/ml anti-PAR-2 antibody (1:400) or 0.5 μg/ml of anti-ETAR antibody (1:500), depending on the respective recombinant cell type used for the sample. […]

[5] = test system: CHO/PAR-2 cells; experiment: Lectin labeling of live cells, CHO/PAR-2; format: cell-based; conditions: TRITC-lectin, 10 nM at maximum
Protocol: as §3, §2

[6] = test system: CHO/PAR-2 cells; experiment: Lectin labeling of fixed cells, CHO/PAR-2; format: cell-based; conditions: TRITC-lectin 10 nM and 20 nM
Protocol: as §1, §2

[7] = test system: U2OS/ETAR-GFP cells; experiment: Lectin labeling of live cells, U2OS/ETAR-GFP; format: cell-based, human; conditions: TRITC-lectin, 10 nM at maximum
Protocol: as §3, §2

[8] = test system: U2OS/ETAR-GFP cells; experiment: Serum supplements (insulin) in live cell labeling; format: cell-based, human; conditions: 20 nM in assay medium in labeling and chase incubations
Protocol: For serum supplements in live cell labeling, starvation was carried out in Opti-MEM medium (11058; Gibco—Invitrogen, Karlsruhe, Germany). The following labeling and chase incubations were conducted in assay medium with a 20 nM insulin supplement.

[9] = test system: U2OS/ETAR-GFP cells; experiment: Internalization pathway analysis in U2OS/ETAR-GFP cells; format: cell-based, human
Protocol: With regard to the internalization pathway analysis in U2OS/ETAR-GFP cells, RDE was inhibited by including 5 mM β-methyl-cyclodextrin (CD) in the leveling medium. The following labeling and chase incubations were conducted in standard assay medium. For inhibition of clathrin mediated endocytosis cells were subjected to hypotonic shock by incubating 5 minutes at 37° C. in a 1:1 starvation medium-ddH2O mixture and then were transferred into a potassium (K^+) depleted assay medium for temperature leveling. The following labeling and chase incubations were also conducted in K^+ depleted assay medium, which was prepared by substituting sodium salts for all potassium salts in HBSS. Inhibition of both pathways was achieved by combining both methods and including 5 mM CD in the leveling medium for CLAME inhibition. For CLAME controls, 5 μg/ml Alexa Fluor 488 conjugated transferrin was included during the labeling period for all inhibited pathway scenarios. Protocol procedures were conducted as described, however, lectins were omitted in the labeling step. For lipid raft-dependent pathways there were no control markers available.

[10] = test system: live cells; experiment: Signal transformation on live cells after labeling with fluorescent lectins (all cell lines); format: cell-based; conditions: all experiments
Protocol: as §3, with “The plate was placed on a rotating shaker at low revolutions for 10 minutes while incubating. The start of the lectin incubation is referred to as assay starting point with t=0 min. After the 10 min incubation period the cells were gently washed with PBS and wells refilled with assay buffer at RT.” left out
The following microscopy and image analysis techniques were employed. […] Utilizing the Opera confocal fluorescence imager, the instrument was calibrated running standard methods for skew cropping (spatial camera alignments) and camera intensity normalization.

[11] = test system: U2OS cells; experiment: Specificity control with competing monosaccharide on fixed cells; format: cell-based, human; conditions: excess of inhibitory monosaccharide
Protocol: as §1

[12] = test system: U2OS/ETAR-GFP cells; experiment: Effect of lectin incubation on morphology of live cells; format: cell-based, human; conditions: 5 nM, 10 nM, and 20 nM versus the control
Protocol: as §3

[13] = test system: CHO/ETAR cell membrane protein; experiment: Lectin blotting of ETAR membrane sample; format: binding; conditions: biotinylated lectin 5 μg/ml
Protocol: as §4
as §5, with “obtained. […]” for “obtained.”

| Substance | Staining of U2OS/ETAR-GFP [1] | Live cell staining of CHO/ETAR [2] | Staining of CHO/ETAR [3] | Live cell staining of CHO/PAR-2 [5] | Staining of CHO/PAR-2 [6] | Live cell staining of U2OS/ETAR-GFP [7] | fluorescent signal in the presence of the competing monosaccharide [11] | other results |
| --- | --- | --- | --- | --- | --- | --- | --- | --- |
| Lens culinaris agglutin [LCA] | extensive fluorescence was observed at the cell surface | fluorescence accumulation in the form of tiny points around the cell boundaries; also recorded: cell boundary, points | cell surface | spot formation | reduced intensity with a high background; also recorded: weak cell surface | spot formation | – | band at the same height as the western band (55 kDa, anti-PAR-2) [4]: one of them matching the height of the western band; bands detected above 35 kDa ([4]; exposure one to five minutes): four |
| porcine insulin | – | – | – | – | – | – | – | effect on spot formation of sWGA signal [8]: complete suppression of spot formation |
| β-methyl-cyclodextrin | – | – | – | – | – | – | – | spot formation of sWGA signal under inhibition of raft-dependent pathways ([9]; 5 mM in leveling medium, cholesterol extraction): did not impede the typical spot formation |
| Phaseolus vulgaris erythroagglutin [PHA-E] | extensive fluorescence was observed at the cell surface | cell surface, sequestered | cell surface | strong signal contrast between the relatively unstained nucleus area and its fluorescing perimeter; also recorded: spot formation | signals clearly marking individual cells; also recorded: cell surface | spot formation | reduced | stability of fluorescence signal over time [10]: fairly stable signals |
| Sophora japonica agglutin [SJA] | only several little, spot-like signals on each cell; also recorded: weak spots on cell | – | – | – | – | medium sized, scattered spots | reduced | effect on U2OS/ETAR-GFP cells, phase contrast [12]: Irritating effect |
| Alexa-Fluor® 488-transferrin: Human holo-transferrin-Alexa Fluor 488 conjugate, standard marker of the clathrin-mediated pathway | – | – | – | – | – | – | – | signals of clathrin-mediated pathway marker ([9]; 5 μg/ml, all conditions but inhibition of the clathrin-dependent pathway): detected in the perinuclear region |
| Griffonia (Bandeiraea) simplicifolia lectin [GSL-I] | very faint signal covering only some single cells; also recorded: weak single cell | – | – | – | reduced intensity with a high background; also recorded: weak cell surface | signal points were significantly smaller and less; also recorded: small, scattered | – | – |
| Pisum sativum agglutin [PSA] | extensive fluorescence was observed at the cell surface | – | – | – | reduced intensity with a high background; also recorded: weak cell surface | spot formation | – | band at the same height as in the western (47 kDa, anti-ETAR) [13]: could clearly be detected |
| Phaseolus vulgaris leucoagglutin [PHA-L] | extensive fluorescence was observed at the cell surface | cell surface, sequestered | cell surface | strong signal contrast between the relatively unstained nucleus area and its fluorescing perimeter; also recorded: spot formation | signals clearly marking individual cells; also recorded: cell surface | spot formation | reduced | stability of fluorescence signal over time [10]: fairly stable signals |
